# According to US20140242609A1, “Diagnosis and treatment of kidney stones, methods and compositions therefor” (Washington University, priority 2013, published 2014):
# “Also recorded” adds a separate entry of the source.
# Legend:
# claudin-14 promoter = assay: lacZ reporter of endogenous claudin-14 promoter activity in claudin-14+/lacZ mice; format: in vivo, mouse
# Experimental: (§1) The inventors also sought for alternative mechanisms for claudin-14 gene regulation. Because the claudin-14 KO mouse was generated with a lacZ reporter gene replacing the last exon of claudin-14 gene (including the coding region and 3″-UTR) (Ben-Yosef et al., 2003), the expression of lacZ gene would provide a faithful measurement for endogenous claudin-14 promoter activity regardless of any microRNA based regulation. The claudin-14^+/lacZ mice were treated with cinacalcet or NPS2143 as described for WT mice.
# as §1, with “explored” for “also sought for”, “3′-UTR; Ben-Yosef, T.,” for “3″-UTR) (Ben-Yosef”, “2003)” for “2003),”
# [1] = urinary Ca++ and Mg++ levels (ratios to creatinine) in spot urine collections; format: in vivo, mouse; conditions: 5 mg/kg BW−1
# Experimental: Mice were housed individually in metabolic cages (Harvard Apparatus) with free access to water and food for 24 hr. Urine was collected under mineral oil. The plasma and urine Ca^++ and Mg^++ levels were determined with atomic flame absorption spectrophotometer (PerkinElmer). The creatinine levels were measured with an enzymatic method that was independent of plasma chromogens. (Gong Y, et al., 2013) The fractional excretion of electrolytes was calculated using the following equation FEion=V×Uion/(GFR×Pion), where GFR was calculated according to the clearance rate of creatinine (GFR=V×Ucreatinine/Pcreatinine).
# In these experiments, the inventors gave wild-type C57BL/6 mice SAHA treatments at 5 mg/kg BW^−1 and traced urinary Ca^++ and Mg^++ levels (as ratios to creatinine) from 4 hr to 12 hr in spot urine collections. Consistent with the downregulation of CLDN14 gene expression at 4 hrs, the urinary excretion of Ca^++ and Mg^++ was reduced by 47% and 40% respectively (p<0.01, n=5 versus vehicle, FIG. 19A-B).
# [2] = 1 hr renal clearance measurements (FITC-inulin), plasma and urine electrolytes; format: in vivo, mouse
# Experimental: (§2) The method for performing renal clearance measurements in the mouse has been described by Hou et al., (2007; 2009). Mice were anesthetized by i.p. injection of Inactin (Sigma; 100 mg/kg). The jugular vein was catheterized for i.v. infusion of 0.9% saline at 2 μL/min, with 1% FITC-inulin included in the infusate. After an equilibration period of 60 min, renal clearance measurements were carried out for a 60 min period. Urine was collected under mineral oil, and 30 μL blood sample was taken at hourly intervals. Urine and plasma Ca^2+ and Mg^2+ concentrations were measured by atomic flame absorption spectrophotometer (PerkinElmer). Urine and plasma FITC-inulin levels were measured in 100 mM HEPES buffer (pH7.0) with fluorescence spectrophotometer (BioTek). The fractional excretion of electrolytes was calculated using the following equation FEion=V×Uion/(GFR×Pion), where GFR was calculated according to the clearance rate of FITC-inulin (GFR=V×Uinulin/Pinulin).
# as §2, with “Hou, J.,” for “Hou”, “2007 and Hou, J., et al., 2009.” for “(2007; 2009).”, “(Sigma:” for “(Sigma;”, “Ca^++” for “Ca^2+”, “Mg^++” for “Mg^2+”, “(PerkinEhner).” for “(PerkinElmer).”
# [3] = cited from earlier work
# PTH = assay: plasma PTH levels after NPS2143 or cinacalcet; format: in vivo, mouse; conditions: for Plasma PTH level, course: 8 hrs versus 2 hr; for PTH response: cyclosporine-A pre-treated
# claudin-14 protein = assay: claudin-14 immunostaining, tight junction localization in mouse kidney sections; format: in vivo; conditions: 30 mg/kg BW−1
# Experimental: (§3) For viewing claudin localization in the kidney, fresh cryostat sections (10 μm) were fixed with cold methanol at −20° C., followed by blocking with PBS containing 10% FBS, incubation with primary antibody (1:300) and FITC-labeled secondary antibody (1:200). After washing with PBS, slides were mounted with Mowiol (Calbiochem). Epifluorescence images were taken with a Nikon 80i photomicroscope equipped with a DS-QilMc digital camera. All images were converted to TIFF format and arranged using Photoshop CS4 (Adobe).
# as §3, with “DS-Qi1Mc” for “DS-QilMc”
# [4] = WT + CsA (25 mg/kg BW−1 per day, 6 days), 2 hr, Veh = CsA alone
# [5] = WT, 2 hr, single dose 30 mg/kg BW−1
# [6] = WT, 2 hr, single dose 30 mg/kg BW−1, 30 mg/kg
# [7] = WT, 2 hr, single dose 30 mg/kg BW−1, listed as Cina, 30 mg/kg
# [8] = WT, 8 hr, single dose 30 mg/kg BW−1
# [9] = claudin-14 KO, 2 hr, single dose 30 mg/kg BW−1
# [10] = WT, at both 2 hrs and 8 hrs, 30 mg/kg BW−1, versus vehicle
# [11] = WT, 2 hr, single dose 30 mg/kg BW−1, listed as NPS, 30 mg/kg
structure (smiles),measurement,setting,value
"O=C(CCCCCCC(=O)Nc1ccccc1)NO [SAHA, Suberanilohydroxamic acid]",lacZ mRNA levels,"claudin-14 promoter; 25 mg/kg BW−1, 4 hrs",no significant change
same,"urinary excretion of Ca++, reduction","[1]; 4 hrs, versus vehicle",47%
same,"urinary excretion of Mg++, reduction","[1]; 4 hrs, versus vehicle",40%
same,effects on urinary Ca++ and Mg++ levels,[1]; after 12 hrs,completely lost
same,urinary Ca++ excretion,[1]; by 8 hrs,hypocalciuria was pronounced
same,urinary magnesium excretion,[1]; by 8 hrs,recovered to the vehicle level
C[C@@H](NCCCc1cccc(C(F)(F)F)c1)c1cccc2ccccc12 [cinacalcet],ECa,[2]; [4],0.79 ± 0.07 ug/hr · g
same,FECa (fractional excretion of Ca++),[2]; [4],1.93 ± 0.20 %
same,FEMg (fractional excretion of Mg++),[2]; [4],14.47 ± 1.13%
same,PCa (plasma Ca++ concentration),[2]; [4],8.09 ± 0.32 mg/dL
same,PMg (plasma Mg++ concentration),[2]; [4],1.58 ± 0.04 mg/dL
same,ECa,[2]; [5],1.33 ± 0.13 ug/hr · g
same,EMg,[2]; [5],2.32 ± 0.26 ug/hr · g
same,FEMg (fractional excretion of Mg++),[2]; [5],28.14 ± 2.93 %
same,PMg (plasma Mg++ concentration),[2]; [5],1.96 ± 0.04 mg/dL
same,FECa (fractional excretion of Ca++),[2]; [6],3.82±0.52%
same,PCa (plasma Ca++ concentration),[2]; [6],8.44 ± 0.27 mg/dL
same,FECa (fractional excretion of Ca++),[2]; [7],3.82 ± 0.52 %
same,PCa (plasma Ca++ concentration),[2]; [7],8.44 ± 0.27 mg/dL
same,ECa,[2]; [8],0.22 ± 0.02 ug/hr · g
same,EMg,[2]; [8],1.25 ± 0.09 ug/hr · g
same,FECa (fractional excretion of Ca++),[2]; [8],0.88 ± 0.14%
same,FEMg (fractional excretion of Mg++),[2]; [8],18.80 ± 1.48%
same,PCa (plasma Ca++ concentration),[2]; [8],9.58 ± 0.21 mg/dL
same,PMg (plasma Mg++ concentration),[2]; [8],2.44 ± 0.16 mg/dL
same,ECa,[2]; [9],0.31 ± 0.03 ug/hr · g
same,EMg,[2]; [9],1.12 ± 0.03 ug/hr · g
same,FECa (fractional excretion of Ca++),[2]; [9],1.08 ± 0.26%
same,FEMg (fractional excretion of Mg++),[2]; [9],12.35 ± 2.21%
same,PCa (plasma Ca++ concentration),[2]; [9],8.47 ± 0.09 mg/dL
same,PMg (plasma Mg++ concentration),[2]; [9],2.64 ± 0.10 mg/dL
same,"cinacalcet induced hypercalciuria, level higher than vehicle","[2]; cyclosporine-A pre-treated animals, 2 hrs",1.93 fold
same,time to maximal serum concentration after oral administration,[3]; oral,1.5 to 3 h
same,half-life of absorbed cinacalcet,[3]; serum,30 to 40 h
same,"Plasma PTH level, course",PTH; WT,continued to suppress plasma PTH levels
same,plasma PTH levels,PTH; [10],significantly affected
same,plasma PTH levels,"PTH; claudin-14 KO animals, 2 hrs",suppressed PTH levels
same,PTH response,PTH; 2 hrs,intact PTH response
same,claudin-14 staining in tight junctions of TALH tubules,claudin-14 protein,profoundly upregulated claudin-14 protein levels in the tight junction
same,lacZ mRNA levels,"claudin-14 promoter; claudin-14+/lacZ mouse kidneys, single-dose 30 mg/kg BW−1, 2 hrs",no change
same,β-galactosidase activity,"claudin-14 promoter; isolated TALH cells of claudin-14+/lacZ mice, single-dose 30 mg/kg BW−1, 2 hrs",no change
CC(C)(Cc1ccc2ccccc2c1)NC[C@@H](O)COc1cccc(Cl)c1C#N [NPS2143],ECa,[2]; [4],0.38 ± 0.02 ug/hr · g
same,EMg,[2]; [4],0.80 ± 0.19 ug/hr · g
same,FECa (fractional excretion of Ca++),[2]; [4],0.95 ± 0.14%
same,FEMg (fractional excretion of Mg++),[2]; [4],11.96 ± 2.27%
same,PCa (plasma Ca++ concentration),[2]; [4],10.50 ± 0.18 mg/dL
same,PMg (plasma Mg++ concentration),[2]; [4],1.67 ± 0.02 mg/dL
same,ECa,[2]; [5],0.06 ± 0.01 ug/hr · g
same,EMg,[2]; [5],1.04 ± 0.06 ug/hr · g
same,FEMg (fractional excretion of Mg++),[2]; [5],7.59 ± 0.32 %
same,PMg (plasma Mg++ concentration),[2]; [5],2.74 ± 0.15 mg/dL
same,FECa (fractional excretion of Ca++),[2]; [6],0.09±0.01%
same,PCa (plasma Ca++ concentration),[2]; [6],11.15 ± 0.21 mg/dL
same,FECa (fractional excretion of Ca++),[2]; [11],0.09 ± 0.01 %
same,PCa (plasma Ca++ concentration),[2]; [11],11.15 ± 0.21 mg/dL
same,ECa,[2]; [8],0.25 ± 0.04 ug/hr · g
same,EMg,[2]; [8],1.41 ± 0.18 ug/hr · g
same,FECa (fractional excretion of Ca++),[2]; [8],0.58 ± 0.11%
same,FEMg (fractional excretion of Mg++),[2]; [8],14.88 ± 2.63%
same,PCa (plasma Ca++ concentration),[2]; [8],10.63 ± 0.43 mg/dL
same,PMg (plasma Mg++ concentration),[2]; [8],2.37 ± 0.09 mg/dL
same,ECa,[2]; [9],0.25 ± 0.09 ug/hr · g
same,EMg,[2]; [9],1.02 ± 0.12 ug/hr · g
same,FECa (fractional excretion of Ca++),[2]; [9],0.74 ± 0.26%
same,FEMg (fractional excretion of Mg++),[2]; [9],10.71 ± 2.16%
same,PCa (plasma Ca++ concentration),[2]; [9],10.22 ± 0.30 mg/dL
same,PMg (plasma Mg++ concentration),[2]; [9],2.88 ± 0.12 mg/dL
same,"Plasma PTH level, course",PTH; WT,started to return towards baseline
same,plasma PTH levels,PTH; [10],significantly affected
same,plasma PTH levels,"PTH; claudin-14 KO animals, 2 hrs",significant increases in plasma PTH levels
same,PTH response,PTH; 2 hrs,intact PTH response
same,claudin-14 staining in tight junctions of TALH tubules,claudin-14 protein,reduced the staining signal for claudin-14 to punctate foci; also recorded: reduced the staining signal for claudin-14 to punctuate foci
